# Assay results taken from patent US20240366693A1, “COMPOSITIONS FOR ENHANCING IMMUNOTHERAPY EFFICACY IN COLORECTAL CANCER TREATMENT” (The Chinese University of Hong Kong, priority 2023, published 2024).
# Tests used:
# [1] = system: HCT116, LoVo, SW480; assay: Cell viability assay on CRC cells (R. intestinalis example); type: cell-based, human; conditions: R.i CM 5% (vol/vol); butyrate 1 mM; inosine 0.4 μg/ml
# Method: 1000 cells per well were seed into a 96-well plate and treated with alive or pasteurized E. coli (CFU=10^6/ml) and R. intestinalis (CFU=10^6/ml), 5% (vol/vol) YCFA, E. coli CM, R. i CM in DMEM separately. Cell viability was determined by Thiazolyl Blue Tetrazolium Bromide (M5644, Merck KGaA, Dacmstadt, DE) 3 days constantly.
# [2] = system: HCT116, LoVo, SW480; assay: Cell apoptosis and cell cycle (flow cytometry, western blot); type: cell-based, human; conditions: R.i CM 5%; butyrate 1 mM; inosine 0.4 μg/ml
# Method: Flow Cytometry was used for cell apoptosis and cell cycle analysis with FACSAria cell sorter (BD Biosciences, Franklin Lakes, US). Data was analyzed by FlowJo 10.4.
# Cell apoptosis was detected by FITC Annexin V apoptosis detection kit (556547, BD Biosciences, Franklin Lakes, US). Adherent cells were removed by Trypsin-EDTA solution and washed with cold PBS twice and then resuspend in binding buffer at a concentration of 1× 10^6 cells/ml. 100 μl of cell solution was transferred to a 5 ml tube, incubated with 5 μl FITC Annexin V and 5 μl PI for 15 minutes at 25° C. in the dark. Cells were added with 400 μl binding buffer to stop staining and analyzed by flow cytometer in one hour.
# For cell cycle analysis, cell pellet was washed by PBS and incubated in 70 to 80% ethanol at −20° C. for more than two hours. In each test, 10^6 cells were used for staining in 0.5 ml PI/RNase staining buffer (550825, BD Biosciences, Franklin Lakes, US) for 15 minutes at room temperature in the dark. Tubes were stored at 4° C. protected from light and analyzed on flow cytometer with one hour.
# [3] = system: CD8+ T cells; assay: Cytotoxic CD8+ T cell markers, T cells from mouse spleen; type: cell-based; conditions: butyrate 1 mM, inosine 0.4 μg/ml
# Method: (§1) T cells isolated from healthy human peripheral blood mononuclear cells (PBMC) using immunomagnetic negative selection kit (17951, Stemcell Technologies, Vancouver, CA). Isolated T cells were then cultured in complete RPMI-1640 medium supplied with human CD3/CD28 magnet beads (11161D, Thermo Fisher Scientific, Waltham, US) and 30 U/ml recombinant human IL-2 (589104, BioLgend, San Diego, US) for expiation and activation for three days. Mouse T cells were isolated from the spleen of naïve mice and purified with Mouse T cell isolation kit (19851, Thermo Fisher Scientific, Waltham, US), cultured in complete RPMI-1640 medium with mouse CD3/CD28 beads (11456D, Thermo Fisher Scientific, Waltham, US) and 30 U/ml recombinant mouse IL-2 (575404, BioLegend, San Diego, US).
# (§2) Cytotoxic CD8+ T cell markers Granzyme B, IFN-γ, TNF-α under the in vitro treatments of R.i CM, NaBu or TLR5 inbibitor TH1020 (HY-116961, MedChemExpress, Monmouth Junction, US) were analyzed with flow cytometry. Isolated human T cells were stimulated with 30 ng/ml PMA, 1 μg/ml ionomycin and 2.5 μg/ml monensin in complete RPMI-1640 medium at 37° C. for 4 hours. […]
# [4] = system: Tlr5; assay: qPCR of receptors and transporters on CD8+ T cells; type: cell-based, mouse; conditions: butyrate treatment
# Method: Total RNA was extracted with Trizol (15596018, Invitrogen, Waltham, US) from naïve mouse spleen isolated T cells after CD3/CD28/IL-2 activation and R.i CM and Butyrate treatments. Then, RNA was reverse transcript into cDNA with RT reagent kit with gDNA eraser (R[…], Takara, Tokyo, JPN). qPCR was performed using TB Green Premix (R[…], Takara) in the QuantStudio 7 Flex System (Thermo Fisher Scientific, Waltham, US). The relative RNA expression was normalized to that of β-actin as denominators.
# [5] = system: CD8+ T cells; assay: Cytotoxic CD8+ T cell markers, T cells from human PBMC; type: cell-based; conditions: human PBMC T cells activated by α-CD3/CD28 and IL-2; butyrate 1 mM
# Method: as §1, §2
# [6] = system: NF-κB; assay: Phospho-NF-κB p65 in activated Jurkat E6.1 T cells; type: cell-based, human; conditions: α-CD3/CD28/IL-2 activated Jurkat E6.1 T cells
# Method: Phospho-NF-κB p65 (Ser536) Rabbit mAb (3033, Cell Signalling Technology, Danvers, US, 1:1000) and NF-κB p65 (D14E12) Rabbit mAb (8242, Cell Signalling Technology, Danvers, US, 1:1000) were used to measure NF-κB nuclear translocation in αCD3/αCD28/IL2 activated Jurkat E6.1 T cells.
# Normal human epithelial cell NCM460, human CRC cell lines HCT116, LoVo, SW480, and mouse CRC cell lines MC38 and CT26 were cultured in Dulbecco's Modified Eagle's Medium (DMEM) with 10% fetal bovine serum (FBS) and 1% penicillin-streptomycin (P/S). Jurkat E6.1 (TIB-152, ATCC) was cultured in RPMI-1640 supplied with 10% FBS and 1% penicillin-streptomycin and activated in 3 μg/ml anti-CD3 (300332, BioLgend, San Diego, US), 5 μg/ml anti-human CD28 (302934, BioLgend, San Diego, US) and 100 IU/ml recombinant human IL-2 (589104, BioLgend, San Diego, US) pre-coated wells for 3 days.
# [7] = target: TLR5 (Homo sapiens, UniProt O60602); assay: biochemical
# [8] = target: T1, human AHR protein (Homo sapiens, UniProt P35869); assay: biochemical; type: binding
# T1 sequence (P35869 11-848): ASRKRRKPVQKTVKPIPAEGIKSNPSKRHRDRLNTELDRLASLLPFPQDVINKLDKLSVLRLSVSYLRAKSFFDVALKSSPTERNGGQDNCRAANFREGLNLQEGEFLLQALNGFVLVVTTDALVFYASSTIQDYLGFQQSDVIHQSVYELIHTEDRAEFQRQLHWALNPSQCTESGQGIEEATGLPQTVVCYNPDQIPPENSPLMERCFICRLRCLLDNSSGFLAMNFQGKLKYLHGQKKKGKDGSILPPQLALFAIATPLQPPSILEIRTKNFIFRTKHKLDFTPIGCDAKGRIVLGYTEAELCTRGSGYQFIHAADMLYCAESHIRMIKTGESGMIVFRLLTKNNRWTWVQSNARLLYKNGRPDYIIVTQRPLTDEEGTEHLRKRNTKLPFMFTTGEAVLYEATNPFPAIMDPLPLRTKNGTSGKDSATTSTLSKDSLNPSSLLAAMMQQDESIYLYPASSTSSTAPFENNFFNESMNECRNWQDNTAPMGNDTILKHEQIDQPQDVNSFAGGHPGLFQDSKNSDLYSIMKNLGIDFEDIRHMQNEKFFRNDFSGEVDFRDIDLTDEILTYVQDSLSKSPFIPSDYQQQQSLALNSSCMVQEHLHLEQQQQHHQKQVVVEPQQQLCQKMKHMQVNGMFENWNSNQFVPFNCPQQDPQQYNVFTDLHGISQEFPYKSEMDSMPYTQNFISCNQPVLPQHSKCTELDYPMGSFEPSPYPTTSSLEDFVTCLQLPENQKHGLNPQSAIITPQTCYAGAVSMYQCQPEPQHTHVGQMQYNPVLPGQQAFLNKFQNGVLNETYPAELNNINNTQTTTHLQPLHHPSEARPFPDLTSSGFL
# Excerpt: We also performed the surface plasma resonance (SPR) assay to explore the interaction between ICA/Kyn with the human AHR receptor. […] These support our hypothesis that ICA displaces Kyn from AHR receptor and inhibited Kyn-mediated Treg differentiation through receptor competition.
# [9] = system: AHR; assay: AHR target gene CYP1B1 expression on CD4+ T cells; type: cell-based, mouse
# Method: (§3) T cells were isolated from spleens of tumour-bearing mice by negative selection using magnetic cell separation (EasySep mouse T cell isolation kit, CD8+ T cell isolation kit or CD4+ CD25+ Regulatory T cell Isolation Kit II; STEMCELL Technologies, Vancouver, Canada). Isolated T cells were cultured in Roswell Park Memorial Institute 1640 medium supplemented with 10% FBS, 50 μM β-mercaptoethanol, 10 ng/ml mouse recombinant interleukin-2 (IL-2), 0.1 ng/mL transforming growth factor β (TGFβ) and activated with Dynabeads mouse anti-CD3/CD28 beads (Thermo Fisher Scientific, Waltham, MA) for 72 hours. Cells were then collected for analysis.
# (§4) Total RNAs were extracted from cell pellets or colonic tissues using TRIzol Reagent (Life Technologies). Complementary DNA (cDNA) was prepared using PrimeScript RT Reagent Kit with gDNA Eraser (Takara, Shiga, Japan). The relative level of specific genes was determined by QuantStudio™ 7 Flex Real-Time PCR System (Thermo Fisher Scientific). All gene expression values were normalized to β-actin and calculated using the 2-ΔΔCt method.
# [10] = system: CT26; assay: ICA model in CT26 syngeneic mice with anti-PD1 and Kyn supplementation; type: in vivo, mouse
# Method: For indolecarboxylic acid (ICA) model, ICA (18 mg/kg, Sigma-Aldrich, St. Louis, MO) was gavaged to mice daily. Tumour inoculation and dosing schedule of anti-PD1 or isotype control is the same as described above. After the outgrowth of palpable tumours, kynurenine (Kyn, 10 mg/kg, Sigma-Aldrich) was intraperitoneally injected into mice twice weekly.
# [11] = system: CD4+ T cells; assay: Foxp3+ Treg differentiation of CD4+ T cells in vitro; type: cell-based, mouse
# Method: as §3
# [12] = system: IDO1; assay: IDO1 mRNA expression in human CRC cell lines induced with IFNγ; type: cell-based; conditions: HCT116 and LoVo; ICA 5 μM; IFNγ 100 ng/mL
# Method: as §4
# Given that ICA was identified as the functional metabolite of L. gallinarum (FIG. 4), we postulated that ICA could be an IDO1 inhibitor. We added IFNγ (100 ng/mL) to induce IDO1 expression.
# [13] = ICA 18 mg/kg daily gavage with anti-PD1 vs vehicle control
# TLR5, sequence (O60602 21-858, species assumed): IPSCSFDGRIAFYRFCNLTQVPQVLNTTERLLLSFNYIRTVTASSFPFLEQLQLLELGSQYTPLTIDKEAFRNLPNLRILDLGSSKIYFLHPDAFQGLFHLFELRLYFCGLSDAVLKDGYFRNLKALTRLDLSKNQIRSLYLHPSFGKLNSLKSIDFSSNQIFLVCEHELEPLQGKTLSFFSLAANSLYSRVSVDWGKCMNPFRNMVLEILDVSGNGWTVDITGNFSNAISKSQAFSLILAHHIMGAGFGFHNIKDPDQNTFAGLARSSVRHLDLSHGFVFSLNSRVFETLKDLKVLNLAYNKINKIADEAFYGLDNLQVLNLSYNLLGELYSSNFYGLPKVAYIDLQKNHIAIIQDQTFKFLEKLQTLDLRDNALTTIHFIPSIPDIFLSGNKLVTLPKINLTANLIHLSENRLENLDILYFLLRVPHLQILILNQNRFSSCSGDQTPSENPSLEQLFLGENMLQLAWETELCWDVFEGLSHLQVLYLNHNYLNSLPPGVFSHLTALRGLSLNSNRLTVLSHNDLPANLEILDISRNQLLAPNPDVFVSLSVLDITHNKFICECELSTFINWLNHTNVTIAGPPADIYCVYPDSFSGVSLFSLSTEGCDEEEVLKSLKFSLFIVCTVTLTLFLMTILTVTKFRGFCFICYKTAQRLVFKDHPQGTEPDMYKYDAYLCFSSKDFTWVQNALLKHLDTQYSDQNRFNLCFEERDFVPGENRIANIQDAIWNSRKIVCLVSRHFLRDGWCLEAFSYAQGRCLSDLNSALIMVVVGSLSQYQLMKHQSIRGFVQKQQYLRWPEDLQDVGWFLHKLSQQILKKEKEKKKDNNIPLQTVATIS
compound,measurement,setting,value
"OC[C@H]1O[C@@H](n2cnc3c(O)ncnc32)[C@H](O)[C@@H]1O [inosine, reference compound]",cell viability of CRC cells,[1],no suppressive effects
same,cell apoptosis,[2],no suppressive effects
same,cell cycle,[2],no suppressive effects
same,"Granzyme B+, IFN-γ+, TNF-α+ CD8+ T cells",[3],"no effects on Granzyme B^+, IFN-γ^+, TNF-α^+ CD8^+ T cells"
"CCCC(=O)O [butyrate, butyric acid]",Tlr5 expression,[4],much higher
same,cell viability of CRC cells,[1],cell viability inhibition
same,"production of Granzyme B, IFN-γ and TNF-α in CD8+ T cells",[5],"promoted the production of Granzyme B, IFN-γ and TNF-α in CD8^+ T cells"
same,cell apoptosis,[2],apoptosis inducement
same,cell cycle,[2],cell cycle arrest
same,NF-κB nuclear translocation / phospho-NF-κB expression,[6],increased NF-κB nuclear translocation with higher phospho-NF-κB expression
same,Kd,[7],264 µM
same,"Granzyme B+, IFN-γ+, TNF-α+ CD8+ T cells",[3],"directly boosted Granzyme B^+, IFN-γ^+, TNF-α^+ CD8^+ T cells"
"O=C(O)c1c[nH]c2ccccc12 [ICA, indole-3-carboxylic acid]",Kd,[8],~39.4 µM
same,Kyn-induced CYP1B1 expression,[9]; ICA added to Kyn 50 μM,markedly suppressed Kyn-induced CYP1B1 expression
same,CYP1B1 expression,[9]; ICA alone,weakly promoted CYP1B1 expression
same,IFNγ+ CD8+ T cells,[10]; ICA,increased IFNγ+ CD8+ T cells
same,Kyn level in serum,[10]; ICA,significantly reduced Kyn level
same,Kyn level in tumour,[10]; ICA,significantly reduced Kyn level
same,Kyn/Trp ratio in tumour,[10]; ICA,significantly reduced
same,Treg infiltration,[10]; ICA,reduced Treg infiltration
same,tumour volume,[10]; [13],reduced tumour weight and tumour volume
same,tumour weight,[10]; [13],reduced tumour weight
same,Kyn-mediated Treg differentiation,[11]; ICA added to Kyn 50 μM,antagonized Kyn-mediated Treg differentiation in a dose-dependent manner
same,"Treg differentiation, treatment alone","[11]; naïve CD4+ T cells, without Kyn",none significantly affected Treg differentiation
same,ICA dose antagonizing Kyn-mediated Treg differentiation,[11]; with Kyn 50 μM,≥ 1.25 µM
same,IDO1 expression,[12],significantly suppressed IDO1 expression
